Laboratory results: paper PMC8584173, “The Cytotoxic Effect of Copper (II) Complexes with Halogenated 1,3-Disubstituted Arylthioureas on Cancer and Bacterial Cells” (International Journal of Molecular Sciences, 2021)
Each block holds one molecule with its values, some of them ahead of it.

Legend:
[1] = system: SW480 (human primary colon cancer); experiment: MTT cytotoxicity assay, SW480; assay type: cell-based; settings: SW480, 72 h
Description: (§1) The human primary (SW480), metastatic (SW620) colon cancer, metastatic prostate cancer (PC3) and human immortal keratinocyte (HaCaT) cell lines were purchased from the American Type Culture Collection (ATCC, Rockville, USA). The cells were cultured in medium according to protocols (MEM for SW480 and SW620, RPMI 1640 for PC3 and DMEM for HaCaT cells) supplemented with 10% fetal bovine serum (FBS), penicillin (100 U/mL) and streptomycin (100 μg/mL) and cultured in 37 °C/ 5% CO2 humidified incubator. The cells were cultured until appropriate confluence was achieved (80–90%). Next, they were harvested by treatment with 0.25% trypsin (Gibco Life Technologies, USA) and used for studies.
(§2) Cells without studied compounds in medium were used as a control.
(§3) The cell viability was assessed by determination of MTT salt (3-(4,5-dimethylthiazol-2-yl)-2,5-diphenyltetrazolium bromide) conversion by mitochondrial dehydrogenase. MTT assay was performed as previously described. Experiments were repeated three times. Cell viability was presented as a percentage of MTT reduction in the treated cells versus the control cells. Number of viable cells cultured without studied compounds was assumed to be 100%. Decreased relative MTT level means decreased cell viability. Thiourea complexes with the highest cytotoxic potential assessed by MTT determination (with the lowest IC50) were chosen for subsequent assessments of cytotoxicity mechanisms.

[2] = system: SW620 (human metastatic colon cancer); experiment: MTT cytotoxicity assay, SW620; assay type: cell-based; settings: SW620, 72 h
Description: as §1, §2
as §3, with “viability.” for “viability. Thiourea complexes with the highest cytotoxic potential assessed by MTT determination (with the lowest IC50) were chosen for subsequent assessments of cytotoxicity mechanisms.”

[3] = system: HaCaT (human immortal keratinocyte cell line); experiment: MTT cytotoxicity assay, HaCaT; assay type: cell-based; settings: HaCaT normal cells, 72 h
Description: as §1, §2, §3

HaCaT cell = system: HaCaT cell; parameters: method as in PMID 30248936; settings: at the concentration 8 µM; cited from earlier work
[4] = system: PC3 (human metastatic prostate cancer); experiment: MTT cytotoxicity assay, PC3; assay type: cell-based; settings: PC3, 72 h, MTT
Description: as §1, §2, §3

all strains = experiment: MIC, all strains; assay type: cell-based
Description: The antimicrobial activity of the compounds was tested on Gram-positive bacteria (Staphylococcus aureus NCTC 4163, Staphylococcus aureus ATCC 25923, Staphylococcus aureus ATCC 6538, Staphylococcus aureus ATCC 29213, Staphylococcus epidermidis ATCC 12228, Staphylococcus epidermidis ATCC 35984), Gram-negative rods (Escherichia coli ATCC 10538, Escherichia coli ATCC 25922, Pseudomonas aeruginosa ATCC 15442, Pseudomonas aeruginosa ATCC 27863) and yeasts (Candida albicans ATCC 10231, Candida albicans ATCC 90028, Candida parapsilosis ATCC 22019). Hospital methicillin-resistant strains of Staphylococcus aureus and Staphylococcus epidermidis were obtained from the collection of the Department of Pharmaceutical Microbiology, Medical University of Warsaw, Poland.
Antifungal activities were assessed using Mueller–Hinton agar + 2% glucose and 0.5 µg/mL methylene blue dye medium. Sterile filter paper discs (9 mm diameter, Whatman Number 3 chromatography paper) were dripped with tested compound solutions (in dimethylsulfoxide, DMSO) to load 400 μg of a given compound per disc. […] The results (diameter of the growth inhibition zone) were read after 18 h of incubation at 35 °C. […] Minimal inhibitory concentrations (the lowest concentration of a tested agent that prevents visible growth of a microorganism) were read after 18 h (bacteria) or 24 h (yeasts) of incubation at 35 °C.

HaCaT cells [5] = system: HaCaT cells; parameters: method as in ref 1S; settings: also printed as 2 mM; ref 1S; cited from earlier work
colon cancer cells = system: colon cancer cells; parameters: method as in ref 2S; settings: at 100 μM, ref 2S; cited from earlier work
PC3 cells [6] = system: PC3 cells; parameters: method as in ref 3S; settings: 200 μM, ref 3S; cited from earlier work
PANC-1 = system: PANC-1; parameters: method as in ref 3S; settings: PANC-1, 100 μM; ref 3S; cited from earlier work
HaCaT cells [7] = experiment: LDH release assay, HaCaT; assay type: cell-based, human; settings: doxorubicin (1.5 μM stated for the cancer lines)
Description: The presence of lactate dehydrogenase (LDH) in culture medium indicates a disturbance of the integrity of the cellular membrane. The LDH activity was performed after 72 h incubation of cells (1 × 10^4 cells per well) in 96-well plates with selected compounds according to manufacturer’s protocol (Roche Diagnostics, Germany), as was described by Chrzanowska et al.. Compound mediated cytotoxicity was determined using equation: ((A test sample−A low control)/ (A high control−A low control)) × 100% (A-absorbance), where “low control” means cells in medium with 2% FBS without tested compounds, and “high control” means cells incubated in medium with 2% FBS and 1% Triton X-100 (100% LDH release). The cytotoxicity was expressed as percentage of LDH release as compared with the maximum release of LDH from Triton-X-100-treated cells.

SW480 cells = experiment: Annexin V-FITC/PI flow cytometry, SW480; assay type: cell-based, human; settings: SW480, 72 h
Description: (§4) The cells were cultured and harvested under the conditions described in the cell culture section. […] The effect of these compounds on the process of early and late apoptosis and necrosis was determined, as described previously, by dual staining with annexin V-FITC and propidium iodide according to manufacturer’s protocol (Becton Dickinson). The cells that were annexin V-FITC positive and PI-negative were identified as early apoptotic and annexin V-FITC and PI-positive as late apoptotic or necrotic.

SW620 cells = experiment: Annexin V-FITC/PI flow cytometry, SW620; assay type: cell-based, human; settings: SW620, 72 h
Description: as §4

PC3 cells [8] = experiment: Annexin V-FITC/PI flow cytometry, PC3; assay type: cell-based, human; settings: PC3, 72 h
Description: as §4

HaCaT cells [9] = experiment: Annexin V-FITC/PI flow cytometry, HaCaT; assay type: cell-based, human; settings: 72 h
Description: as §4

interleukin-6 (IL-6) = experiment: IL-6 level assay (ELISA); assay type: cell-based, human; settings: PC3, IC50 dose, 72 h
Description: IL-6 concentration at all studied cancer cells and normal HaCaT cell lines was measured by ELISA kit (Diaclon SAS Besancon Cedex, France). […] IL-6 in cell culture supernatant was measured using enzyme-linked immunosorbent assay in accordance with the manufacturer’s protocol.

[10] = system: clinical methicillin-resistant strains of S. aureus (MRSA) and S. epidermidis (MRSE); settings: cited from earlier work
[11] = system: standard bacterial strains; parameters: method as in PMID 29499458; settings: cited from earlier work

Molecule: N.N.[Cl][Pt][Cl] [Cisplatin, reference compound]
IC50 [1]: 10.4 ± 0.9 µM
IC50 [2]: 6.7 ± 1.1 µM
IC50 [3]: 6.3 ± 0.7 µM

Molecule: O=[N+]([O-])c1cc(NC(=S)Nc2ccc(Cl)c(Cl)c2)ccc1Cl [Compound L5, 1-(4-chloro-3-nitrophenyl)-3-(3,4-dichlorophenyl)thiourea]
decrease in HaCaT cell viability (HaCaT cell): approximately 20%

MIC (all strains): ≥ 128 µg/mL
Molecule: [Cl][Cu][Cl] [CuCl2, copper (II) chloride, reference compound]
IC50 [1]: 109 ± 7.6 µM
IC50 [2]: 96.3 ± 5.2 µM
IC50 [4]: 106 ± 6.3 µM
IC50 [3]: 114 ± 4.8 µM
IC50 ([3]; listed as copper (II) chloride): > 100 µM

Molecule: CN(C)C=O [DMF, dimethylformamide]
concentration at which DMF influenced HaCaT cells (HaCaT cells [5]): 140 µg/mL
LDH release (colon cancer cells): not increase LDH release
apoptosis (PC3 cells [6]): 85%
apoptosis (PANC-1): 30%

Molecule: COc1cccc2c1C(=O)c1c(O)c3c(c(O)c1C2=O)C[C@@](O)(C(=O)CO)C[C@@H]3O[C@H]1C[C@H](N)[C@H](O)[C@H](C)O1 [Doxorubicin, reference compound]
IC50 ([1]; Homo sapiens): 0.75 ± 0.1 µM
IC50 ([3]; Homo sapiens): 0.29 ± 0.1 µM
LDH release (HaCaT cells [7]): 80%
cells at the necrotic stage (SW480 cells): 86%
cells at the necrotic stage (SW620 cells): 51%
cells at the necrotic stage (PC3 cells [8]): 50%
late apoptosis, % of cells (PC3 cells [8]): 23%
cells at the necrotic stage (HaCaT cells [9]): 42%
reduction of IL-6 secretion, times (interleukin-6 (IL-6)): almost twofold

Molecule: copper (II) complex of 1-(3-chloro-4-fluorophenyl)-3-[3-trifluoromethyl)phenylthiourea
MIC [10]: 4 to 8 µg/mL
MIC [11]: 4 to 256 µg/mL
